Each structure is given as a SMILES string. Read-outs that look alike come from different tables or passages of the source. Marks after values point to notes of the source that are not given here.

The values that follow come from patent US8685974B2 (Bayer CropScience AG, priority 2009, dated 2014).

For one data set, the system named is Puccinia recondita. As to the kind of experiment: In vivo test on Puccinia recondita (brown rust). Conditions: dose of 500 ppm; wheat plants; grading 10 days after contamination. The protocol:
In Vivo Test on Puccinia recondita (Brown Rust)
(§1) The active ingredients tested are prepared by homogenization in a mixture of acetone/tween/DMSO, then diluted with water to obtain the desired active material.
Wheat plants (Scipion variety) sown on 50/50 peat soil-pozzolana substrate in starter cups and grown at 12° C., are treated at the 1-leaf stage (10 cm tall) by spraying with the aqueous suspension described above.
(§2) Plants, used as controls, are treated with an aqueous solution not containing the active material.
After 24 hours, the plants are contaminated by spraying the leaves with an aqueous suspension of Puccinia recondita spores (100,000 spores per ml). The spores are collected from a 10-day-old contaminated wheat and are suspended in water containing 2.5 ml/l of tween 80 10%. The contaminated wheat plants are incubated for 24 hours at 20° C. and at 100% relative humidity, and then for 10 days at 20° C. and at 70% relative humidity.
Grading is carried out 10 days after the contamination, in comparison with the control plants.

The test system of another data set is Peronospora parasitica. Kind of data set: In vivo test on Peronospora parasitica (crucifer downy mildew). Conditions: dose of 500 ppm; cabbage plants; grading 5 days after contamination. The protocol:
In Vivo Test on Peronospora parasitica (Crucifer Downy Mildew)
The active ingredients tested are prepared by homogenization in a mixture of acetone/Tween/DMSO, then diluted with water to obtain the desired active material concentration.
Cabbage plants (Eminence variety) in starter cups, sown on a 50/50 peat soil-pozzolana substrate and grown at 18-20° C., are treated at the cotyledon stage by spraying with the aqueous suspension described above.
as §2
After 24 hours, the plants are contaminated by spraying them with an aqueous suspension of Peronospora parasitica spores (50 000 spores per ml). The spores are collected from infected plant.
The contaminated cabbage plants are incubated for 5 days at 20° C., under a humid atmosphere.
Grading is carried out 5 days after the contamination, in comparison with the control plants.

The next data set relates to Botrytis cinerea. As to the kind of experiment: In vivo test on Botrytis cinerea (grey mould). Particulars: dose of 500 ppm; gherkin plants; grading 5/7 days after contamination. As to the method: In Vivo Test on Botrytis cinerea (Grey Mould)
The active ingredients tested are prepared by homogenization in a mixture of acetone/Tween/DMSO, then diluted with water to obtain the desired active material
Gherkin plants (Vert petit de Paris variety), sown on a 50/50 peat soil-pozzolana substrate in starter cups and grown at 18-20° C., are treated at the cotyledon Z11 stage by spraying with the active ingredient prepared as described above.
as §2
After 24 hours, the plants are contaminated by depositing drops of an aqueous suspension of Botrytis cinerea spores (150,000 spores per ml) on upper surface of the leaves. The spores are collected from a 15-day-old culture and are suspended in a nutrient solution composed of: • 20 g/L of gelatine; • 50 g/L of D-fructose; • 2 g/L of NH4NO3; • 1 g/L of KH2PO4.
The contaminated cucumber plants are settled for 5/7 days in a climatic room at 15-11° C. (day/night) and at 80% relative humidity.
Grading is carried out 5/7 days after the contamination, in comparison with the control plants.

Another data set has as its system Phakopsora pachyrhizi. Particulars: 250 ppm active substance; protective; assessment 11 days after inoculation.
For a further data set, the system named is Pyrenophora teres. Kind of data set: In vivo test on Pyrenophora teres (barley net blotch). Particulars: dose of 500 ppm; barley plants; grading 12 days after contamination. Put shortly:
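Barley plants (Plaisant) grown at 12° C. sprayed at 1-leaf stage with compound in acetone/Tween/DMSO diluted in water; 24 h later inoculated with P. teres spores (12,000 spores/ml). Incubated 24 h at ~20° C., 100% RH, then 12 days at 80% RH; graded 12 days post-inoculation against untreated controls.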

A further data set has as its system Sphaerotheca fuliginea. As to the kind of experiment: In vivo test on Sphaerotheca fuliginea (cucurbits powdery mildew). Particulars: dose of 500 ppm; gherkin plants; grading 12 days after contamination. As to the method: In Vivo Test on Sphaerotheca fuliginea (Cucurbits Powdery Mildew)
as §1
Gherkin plants (Vert petit de Paris variety) in starter cups, sown on a 50/50 peat soil-pozzolana substrate and grown at 20° C./23° C., are treated at the cotyledon Z10 stage by spraying with the aqueous suspension described above. Plants, used as controls, are treated with an aqueous solution not containing the active material.
After 24 hours, the plants are contaminated by spraying them with an aqueous suspension of Sphaerotheca fuliginea spores (100 000 spores per ml). The spores are collected from a contaminated plants. The contaminated gherkin plants are incubated at about 20° C./25° C. and at 60/70% relative humidity.
Grading (% of efficacy) is carried out 12 days after the contamination, in comparison with the control plants.

Another data set deals with Fusarium proliferatum. Kind of data set: Production of fumonisin FB1 by Fusarium proliferatum (microtiter plate, HPLC-MS/MS and OD620). It is filed as cell-based.
A further data set has as its system Cochliobolus miyabeanus. Kind of data set: Cochliobolus test (rice) / protective. Format: in vivo. Particulars: 500 ppm active compound, protective spray, evaluated 4 days after inoculation.
The test system of the next data set is Pyricularia grisea. Conditions: in vivo.
In another data set the test system is Rhizoctonia solani. As to the kind of experiment: Rhizoctonia test (rice) / protective. It is filed as in vivo. Conditions: 500 ppm active compound, protective spray, evaluated 4 days after inoculation. The protocol: Rhizoctonia Test (Rice)/Protective
Solvent: 28.5 parts by weight of acetone
Emulsifier: 1.5 parts by weight of polyoxyethylene alkyl phenyl ether
To produce a suitable preparation of active compound, 1 part by weight of active compound is mixed with the stated amounts of solvent and emulsifier, and the concentrate is diluted with water to the desired concentration.
To test for protective activity, young plants are sprayed with the preparation of active compound at the stated rate of application. One day after spraying, the plants are inoculated with a hypha of the causal agent of rice sheath blight (Rhizoctonia solani). The plants are then placed in an incubator at approximately 25° C. and a relative atmospheric humidity of approximately 100%.
The test is evaluated 4 days after the inoculation. 0% means an efficacy which corresponds to that of the control, while an efficacy of 100% means that no disease is observed.

The subject of another data set is Pyricularia oryzae. Conditions: in vivo.
The next data set concerns Alternaria solani. Kind of data set: Alternaria test (tomato) / protective. Particulars: 500 ppm active compound, protective spray, evaluated 7 days after inoculation. Format: in vivo. In outline:
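Young tomato plants sprayed protectively with compound formulated in DMF with alkylaryl polyglycol ether emulsifier and diluted in water to the application rate. After inoculation, plants held at 96% rel. humidity and 20° C. Efficacy scored 7 days post-inoculation: 0% equals untreated control, 100% no infection.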

The conditions of data set [1]: method [c]: LC-MS at pH 7.8, 0.001 molar ammonium hydrogen carbonate, gradient 10% to 95% acetonitrile.
In another data set the test system is Fusarium graminearum. It is filed as cell-based. Conditions: 50 μM.

As for `CCC(C)n1cc(-c2ccncc2)c(-c2ccc(Cl)s2)n1` (stereo not drawn) [Example 8], the protection in the data set on Puccinia recondita was 86%; with Peronospora parasitica, 92%; in the data set with Botrytis cinerea, 100%; with Pyrenophora teres, 100%. Besides, the log p (pH 2.7) was 2.1^[b]. In addition, in the data set on Phakopsora pachyrhizi, the activity level was 98%.

In the case of `CC(C)n1cc(-c2ccncc2)c(-c2ccc(Cl)s2)n1` [Example 38], the protection was 72% with Puccinia recondita, 97% in the data set on Peronospora parasitica and 100% with Botrytis cinerea. For the same compound, the log p (pH 2.3) was 1.63^[a]; and the log p (pH 2.7) was 1.88^[b]. Moreover, the entries for the “protection (% of efficacy)” value in the data set on Sphaerotheca fuliginea and with Pyricularia grisea were 83% and 98%, respectively. Besides, the “% inhibition FB1 production at 50 μM” value with Fusarium proliferatum (5 days at 20° C., HPLC-MS/MS) came to 100%. Also, the “% inhibition fungal growth at 50 μM” value in the data set with Fusarium proliferatum (Fusarium proliferatum, OD620 at start and after 5 days) was 88%. Further, the efficacy in the data set on Cochliobolus miyabeanus is on record as 93%; in the data set on Rhizoctonia solani, 97%; with Pyricularia oryzae, 98%.

In the case of `C#CCn1cc(-c2ccncc2)c(-c2ccc(Cl)s2)n1` [Example 47], the figures for the protection in the data set on Puccinia recondita, with Peronospora parasitica and in the data set on Pyrenophora teres were 71%, 100% and 70%, respectively. Moreover, the “logP value of the minor isomer (in parenthesis in column Isomer ratio [d])” value (minor isomer, main value of the example measured by method [b], pH 2.7) is given as “(1.36)”. For the setting “pH 2.7”, the log p is 1.54^[b]. The efficacy was 95% with Alternaria solani and 86% with Pyricularia oryzae. The “protection (% of efficacy)” value in the data set with Pyricularia grisea came to 86%.

`CCC(C)n1cc(-c2ccnc(N=C(c3ccccc3)c3ccccc3)c2)c(-c2ccc(Cl)s2)n1` (stereo not drawn) [Example 308]: the log p in data set [1] is 6.5^[c].

Take `CCC(C)n1cc(-c2ccnc(N)c2)c(-c2ccc(Cl)s2)n1` (stereo not drawn) [Example 317]: the log p in [1] is 3.31^[c]. For the same compound, the “% Inhibition of fungal growth at 50 μM” value in the data set on Fusarium graminearum is 78%. Further, in the data set with Fusarium graminearum (7 days at 28° C.), the “% Inhibition of DON/AcDON at 50 μM” value was found to be 100%.
